The record followed here is USRE42013E1, “Macrocyclic modulators of the ghrelin receptor” (Tranzyme Pharma Inc., priority 2003, dated 2010).

One test deals with T1, human growth hormone secretagogue receptor (hGHS-R1a) (Homo sapiens, UniProt Q92847).
T1 construct: purchased PerkinElmer BioSignal #RBHGHSM, lot#1887; host or cells: HEK-293, stably transfected
T1 sequence (Q92847 whole entry): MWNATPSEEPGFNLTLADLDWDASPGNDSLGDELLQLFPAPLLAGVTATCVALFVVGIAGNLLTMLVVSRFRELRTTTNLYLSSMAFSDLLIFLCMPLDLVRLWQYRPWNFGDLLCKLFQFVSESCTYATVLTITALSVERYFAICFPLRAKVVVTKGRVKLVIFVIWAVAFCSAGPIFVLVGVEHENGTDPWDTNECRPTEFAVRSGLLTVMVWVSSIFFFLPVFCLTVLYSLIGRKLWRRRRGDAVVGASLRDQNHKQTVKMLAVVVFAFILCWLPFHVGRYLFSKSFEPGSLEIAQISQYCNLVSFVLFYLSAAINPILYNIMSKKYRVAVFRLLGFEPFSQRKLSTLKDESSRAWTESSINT
Kind of test: Competitive radioligand binding assay (ghrelin receptor), [125I]-ghrelin displacement. The note with it: Table 3B; binding at human ghrelin receptor, [125I]-ghrelin displacement; read-out: Ki. Here is the method:
The competitive binding assay at the human growth hormone secretagogue receptor (hGHS-R1a) was carried out analogously to assays described in the literature.
Multiscreen Harvest plates-GF/C (Millipore, #MAHFC1H60) • 4. […] Bottom seal (Millipore, #MATAH0P00) • 7. […] Binding Buffer: 25 mM Hepes (pH 7.4), 1 mM CaCl2, 5 mM MgCl2, 2.5 mM EDTA, 0.4% BSA Assay Volumes
Competition experiments were performed in a 300 μl filtration assay format. • 1. 220 μL of membranes diluted in binding buffer • 2. 40 μL of compound diluted in binding buffer • 3. […] Compound Handling
Compounds were provided frozen on dry ice at a stock concentration of 10 mM diluted in 100% DMSO and stored at −80° C. until the day of testing. On the test day, compounds were allowed to thaw at rt O/N and then diluted in assay buffer according to the desired test concentrations.
Plates were sealed with TopSeal-A, vortexed gently and incubated at rt for 30 min. The reaction was arrested by filtering samples through Multiscreen Harvest plates (pre-soaked in 0.5% polyethyleneimine) using a Tomtec Harvester, washed 9 times with 500 μL of cold 50 mM Tris-HCl (pH 7.4, 4° C.), and then plates were air-dried in a fumehood for 30 min. A bottom seal was applied to the plates prior to the addition of 25 μL of MicroScint-0 to each well. […] Results were expressed as counts per minute (cpm).
Data were analyzed by GraphPad Prism (GraphPad Software, San Diego, Calif.) using a variable slope non-linear regression analysis.
Compound structures for Tables 3A, 3B and 3D are presented with the various groups as defined for the general structure of formula I. For Tables 3B and 3D, in all entries, m, n and p are 0; X, Z1 and Z2 are each NH. For Table 3B, R1 is H for all entries. The tethers (T) are illustrated with the bonding to X and Z2 as indicated. The compounds themselves are shown for Table 3C.
• 1. […] Key Aspects of Method • 1. […] Results
As to `O=C1NC2(CCCC2)C(=O)NC(Cc2cccc(Cl)c2)C(=O)NCC=Cc2ccccc2OCCNC1Cc1ccc(O)cc1` (stereo not shown) [compound 301], the Ki is less than 0.1 µM. For `CC1C(=O)NC(Cc2ccc(F)cc2)C(=O)NCCC=CCOCCNC(C2CC2)C(=O)N1C` (stereo not shown) [compound 307], the Ki is 0.1 to 10 µM. On the same count and under the same terms, next, `CC1C(=O)NC(Cc2ccsc2)C(=O)NCCCc2ccccc2OCCNC(C2CC2)C(=O)N1C` (stereo not shown) [compound 310]: less than 0.1 µM; `C[C@@H]1C(=O)N[C@H](Cc2ccc(O)c(C(C)(C)C)c2)C(=O)NCCCc2ccccc2OCCN[C@@H](C2CC2)C(=O)N1C` [compound 311]: less than 0.1 µM; `COc1ccc(CC2NC(=O)C(C)N(C)C(=O)C(C3CC3)NCCOc3ccccc3CCCNC2=O)cc1OC` (stereo not shown) [compound 323]: 0.1 to 10 µM. Take `CC1C(=O)NC(Cc2c[nH]c3ccccc23)C(=O)NCCCc2ccccc2OCCNC(C2CC2)C(=O)N1C` (stereo not shown) [compound 324]: the Ki was less than 0.1 µM. Turning to `CCC(C)C1NCCOc2ccccc2C=CCNC(=O)C(Cc2cccc(Br)c2)NC(=O)C2(CCCC2)NC1=O` (stereo not shown) [compound 326], the Ki was less than 0.1 µM. For the compound `CCC(C)C1NCCOc2ccccc2C=CCNC(=O)C(Cc2cccc(C#N)c2)NC(=O)C2(CCCC2)NC1=O` (stereo not shown) [compound 329], the Ki was less than 0.1 µM. Still for that read-out and setting: then `CCC(C)C1NCCOc2ccccc2C=CCNC(=O)C(Cc2ccsc2)NC(=O)C2(CCCC2)NC1=O` (stereo not shown) [compound 333], with 0.1 to 10 µM; and `COC(C)C1NCCOc2ccccc2CCCNC(=O)C(Cc2ccc(F)cc2)NC(=O)C(C)N(C)C1=O` (stereo not shown) [compound 335], with less than 0.1 µM; and `O=C1NC2(CCCC2)C(=O)NC(Cc2cccc(Cl)c2)C(=O)NCC=Cc2ccccc2OCCNC1Cc1ccsc1` (stereo not shown) [compound 341], with less than 0.1 µM. On the same count and under the same terms, next, `N#Cc1ccccc1CC1NCCOc2ccccc2C=CCNC(=O)C(Cc2cccc(Cl)c2)NC(=O)C2(CCCC2)NC1=O` (stereo not shown) [compound 342]: 0.1 to 10 µM. Consider `COCC1NCCOc2ccccc2C=CCNC(=O)C(Cc2cccc(Cl)c2)NC(=O)C2(CCCC2)NC1=O` (stereo not shown) [compound 344], for which the Ki was in the range of 0.1 to 10 µM. For the compound `CC1C(=O)NC(Cc2ccc(F)cc2)C(=O)NCCCc2cc(F)ccc2OCCNC(C2CC2)C(=O)N1C` (stereo not shown) [compound 355], the Ki was less than 0.1 µM. Take `CC1C(=O)NC(Cc2ccc(F)cc2)C(=O)NCCCc2cc(C(F)(F)F)ccc2OCCNC(C2CC2)C(=O)N1C` (stereo not shown) [compound 356]: the Ki was in the range of 0.1 to 10 µM.

Consider `CC1C(=O)NC(Cc2ccc(F)cc2)C(=O)NCCCc2ccc(NS(C)(=O)=O)cc2OCCNC(C2CC2)C(=O)N1C` (stereo not shown) [compound 357], for which the Ki is 0.1 to 10 µM. Same read-out and setting: then `CCC(C)C1NCCOc2ccccc2C(C)(C)CCNC(=O)C(Cc2cccc(Cl)c2)NC(=O)C2(CCCC2)NC1=O` (stereo not shown) [compound 359], with 0.1 to 10 µM. Same read-out and setting: next, `CCC(C)C1NCCOCC=CCCNC(=O)C(Cc2cccc(Cl)c2)NC(=O)C2(CCCC2)NC1=O` (stereo not shown) [compound 360]: 0.1 to 10 µM; `CCC(C)C1NCCCc2ccccc2C=CCCNC(=O)C(Cc2cccc(Cl)c2)NC(=O)C2(CCCC2)NC1=O` (stereo not shown) [compound 361]: 0.1 to 10 µM; `CCC(C)C1NCc2ccccc2CCCCCNC(=O)C(Cc2cccc(Cl)c2)NC(=O)C2(CCCC2)NC1=O` (stereo not shown) [compound 362]: 0.1 to 10 µM.

For `CCC(C)C1NCCCCCCCCNC(=O)C(Cc2cccc(Cl)c2)NC(=O)C2(CCCC2)NC1=O` (stereo not shown) [compound 363], the Ki is 0.1 to 10 µM. On the same count and under the same terms, next, `CCC(C)C1NCCCCCCNC(=O)C(Cc2cccc(Cl)c2)NC(=O)C2(CCCC2)NC1=O` (stereo not shown) [compound 365]: 0.1 to 10 µM; `CCC(C)C1NCCCCCCCNC(=O)C(Cc2cccc(Cl)c2)NC(=O)C2(CCCC2)NC1=O` (stereo not shown) [compound 366]: 0.1 to 10 µM.

With `CCC(C)C1NCCOCCCCCNC(=O)C(Cc2cccc(Cl)c2)NC(=O)C2(CCCC2)NC1=O` (stereo not shown) [compound 370], the Ki fell in the range of 0.1 to 10 µM. On to `CCC(C)C1NCCCc2ccccc2CCCCNC(=O)C(Cc2cccc(Cl)c2)NC(=O)C2(CCCC2)NC1=O` (stereo not shown) [compound 371], for which the Ki was less than 0.1 µM.

For the compound `CC1C(=O)NC(Cc2ccc(F)cc2)C(=O)NCCCc2cc(Cl)ccc2OCCNC(C2CC2)C(=O)N1C` (stereo not shown) [compound 373], the Ki is less than 0.1 µM. Still for that read-out and setting: next, `CC1CCNC(=O)C(Cc2ccc(F)cc2)NC(=O)C(C)N(C)C(=O)C(C2CC2)NCCOc2ccccc21` (stereo not shown) [compound 375]: 0.1 to 10 µM; `CC1CNC(=O)C(Cc2ccc(F)cc2)NC(=O)C(C)N(C)C(=O)C(C2CC2)NCCOc2ccccc2C1` (stereo not shown) [compound 376]: 0.1 to 10 µM; `CC1C(=O)NC(Cc2ccc(F)cc2)C(=O)NCCOc2cccc(c2)OCCNC(C2CC2)C(=O)N1C` (stereo not shown) [compound 377]: 0.1 to 10 µM.

For the compound `CC1C(=O)NC(Cc2ccc(F)cc2)C(=O)NCCC(C)(C)c2ccccc2OCCNC(C2CC2)C(=O)N1C` (stereo not shown) [compound 378], the inhibition constant Ki is 0.1 to 10 µM. The same measure, in the same setting: next, `CC1C(=O)NC(Cc2ccc(F)cc2)C(=O)NCC2CC2c2ccccc2OCCNC(C2CC2)C(=O)N1C` (stereo not shown) [compound 379]: less than 0.1 µM; `CCC(C)C1NCCOc2ccccc2C=CCNC(=O)C(Cc2cccc(Cl)c2)NC(=O)C2(CCCC2)NC1=O` (stereo not shown) [compound 380]: 0.1 to 10 µM. For `CCC(C)C1NCCOc2ccccc2C#CCNC(=O)C(Cc2cccc(Cl)c2)NC(=O)C2(CCCC2)NC1=O` (stereo not shown) [compound 381], the Ki was less than 0.1 µM. Still for that read-out and setting: next, `CCC(C)C1NCCOc2cc(F)ccc2CCCNC(=O)C(Cc2cccc(Cl)c2)NC(=O)C2(CCCC2)NC1=O` (stereo not shown) [compound 383]: 0.1 to 10 µM. For the compound `CCC(C)C1NCCOc2ccc(Cl)cc2CCCNC(=O)C(Cc2cccc(Cl)c2)NC(=O)C2(CCCC2)NC1=O` (stereo not shown) [compound 384], the Ki was 0.1 to 10 µM. Take `CCC(C)C1NCCOc2cccnc2CCCNC(=O)C(Cc2cccc(Cl)c2)NC(=O)C2(CCCC2)NC1=O` (stereo not shown) [compound 385]: the Ki lay within 0.1 to 10 µM. The same measure, in the same setting: then `CCC(C)C1NCCOc2ccccc2C(C)CCNC(=O)C(Cc2cccc(Cl)c2)NC(=O)C2(CCCC2)NC1=O` (stereo not shown) [compound 386], with 0.1 to 10 µM; and `CCC(C)C1NCCOc2ccccc2C2CC2CNC(=O)C(Cc2cccc(Cl)c2)NC(=O)C2(CCCC2)NC1=O` (stereo not shown) [compound 387], with 0.1 to 10 µM. Same read-out and setting: next, `CCC(C)C1NCCCNCCNC(=O)C(Cc2cccc(Cl)c2)NC(=O)C2(CCCC2)NC1=O` (stereo not shown) [compound 390]: 0.1 to 10 µM; `CCC(C)C1NCCOc2ccccc2CC(C)CNC(=O)C(Cc2cccc(Cl)c2)NC(=O)C2(CCCC2)NC1=O` (stereo not shown) [compound 392]: less than 0.1 µM. Same read-out and setting: next, `CCC(C)C1NCCOCCOCCNC(=O)C(Cc2cccc(Cl)c2)NC(=O)C2(CCCC2)NC1=O` (stereo not shown) [compound 393]: 0.1 to 10 µM; `CC1C(=O)NC(Cc2ccc(F)cc2)C(=O)NCCCCCOCCNC(C2CC2)C(=O)N1C` (stereo not shown) [compound 398]: 0.1 to 10 µM. Take `CC1C(=O)NC(Cc2ccc(F)cc2)C(=O)NCC=Cc2ccccc2OCCNC(C2CC2)C(=O)N1C` (stereo not shown) [compound 400]: the Ki is less than 0.1 µM.

Still in this test, the particulars now being: Table 3D; binding at human ghrelin receptor, [125I]-ghrelin displacement; read-out: Ki.
Take `CC1CNC(C2CC2)C(=O)N(C)C(C)C(=O)NC(Cc2ccccc2)C(=O)NCCCc2ccc(F)cc2O1` (stereo not shown) [compound 435]: the Ki fell in the range of 0.01 to 0.1 µM. On the same count and under the same terms, then `CC(C)CC1NCC(C)Oc2ccccc2CCCNC(=O)C(Cc2cccc(Cl)c2)NC(=O)C2(CCCC2)NC1=O` (stereo not shown) [compound 438], with 1 to 10 µM. Regarding `CCC(C)C1NCCOc2ccccc2CCCNC(=O)C(Cc2ccc(F)cc2)NC(=O)C(COCc2ccccc2)N(C)C1=O` (stereo not shown) [compound 440], the Ki was in the range of 0.1 to 10 µM. As to `CCC(C)C1NCCCCCNC(=O)C(Cc2cccc(Cl)c2)NC(=O)C2(CCCC2)NC1=O` (stereo not shown) [compound 447], the Ki lay in the range of 1 to 10 µM.

Staying with this test, now noted: Table 3E; binding activity at the human ghrelin receptor, class symbols; read-out: Ki.
Take `CC(C)C[C@@H]1NCCOc2ccccc2CCCNC(=O)[C@H](Cc2ccccc2)NC(=O)[C@@H]2CCCN2C1=O` [compound 222]: the Ki lay in the range of 1 to 10 µM.

Take `CC(C)C[C@@H]1NCCOc2ccccc2CCCNC(=O)[C@H](Cc2ccccc2)NC(=O)[C@H]2CCCN2C1=O` [compound 223]: the Ki was in the range of 1 to 10 µM.

Staying with this test, now noted: Table 4; binding at human ghrelin receptor; TFA salts unless otherwise noted; read-out: Ki.
As for `CCCCC1NCCOc2ccccc2CCCNC(=O)C(Cc2ccccc2)NC(=O)CN(C)C1=O` (stereo not shown) [Compound 1], the Ki lay in the range of 0.01 to 0.1 µM. On the same count and under the same terms, next, `CCC(C)C1NCCCCCCCCNC(=O)C(Cc2cccc(Cl)c2)NC(=O)C2(CCCC2)NC1=O` (stereo not shown) [compound 363]: 0.1 to 1 µM.

The same test, now with this note: [125I]-ghrelin displacement, hGHS-R1a HEK-293 membranes; read-out: Binding Activity at the Human Ghrelin Receptor (Ki).
For `O=C1NC2(CCCC2)C(=O)NC(Cc2ccccc2)C(=O)NCC=Cc2ccccc2OCCNC1Cc1ccccn1` (stereo not shown) [compound 210], the Ki is greater than 1 µM. On to `O=C1NC2(CCCC2)C(=O)NC(Cc2ccccc2)C(=O)NCC=Cc2ccccc2OCCNC1Cc1c[nH]cn1` (stereo not shown) [compound 219], for which the Ki lay in the range of 0.1 to 10 µM.

The same test, now with this note: binding activity at the human ghrelin receptor; [125I]-ghrelin displacement, hGHS-R1a/HEK-293 membranes; read-out: Ki.
As to `CCCCC1NCCOc2ccccc2CCCNC(=O)C(Cc2ccccc2)NC(=O)CN(C)C1=O` (stereo not shown) [Compound 1], the Ki fell in the range of 0.01 to 0.1 µM.

A further test deals with human ghrelin receptor (hGHS-R1a) (Homo sapiens, UniProt Q92847). The test is described as follows: cell-based.
human ghrelin receptor (hGHS-R1a), sequence (Q92847 whole entry): as above
Conditions: not given
`CCCCC1NCCOc2ccccc2CCCNC(=O)C(Cc2ccccc2)NC(=O)CN(C)C1=O` (stereo not shown) [Compound 1] displayed an EC50 of 0.1 to 1 µM.
